# Patent US20220211658A1, “METHODS FOR TREATING DISORDERS ASSOCIATED WITH SLEEP SPINDLE DEFICITS” (The Broad Institute, Inc., priority 2019, published 2022)
# Columns and labels:
# [1] = tested on: TRN neurons in WT mice; assay: Rebound burst firing in TRN neurons, acute brain slices from WT mice; type: cell-based; details: mean±s.e.m.
# Description: (§1) TRN neurons are known to display dual firing modes depending on their resting membrane potential: tonic and burst firing. While tonic firing refers to regular sodium spike trains at depolarized membrane potential, burst firing is characterized by repetitive “low-threshold” T type Ca^2+ transients (mediated by Cav3.3 channel) crowned by high-frequency sodium spikes when hyperpolarized. This burst firing mode may be critical for the generation and/or the maintenance of certain sleep rhythms in mice, including generation and maintenance of sleep spindle oscillations (Astori et al., 2011; Lee et al., 2014; Steriade et al., 1993; von Krosigk et al., 1993; Sherman et al., 2002).
# Whether this characteristic TRN burst firing activity is affected by activation of the group II metabotropic glutamate receptors, including mGlu2 and mGlu3, was examined using the group II metabotropic glutamate receptor agonist, LY379268. As shown in FIG. 1A-1B, a significant increase in the repetitive rebound bursting after the addition of LY379268 compared to baseline levels in acute brain slices acquired from wild-type (WT) mice was observed. The rebound bursting in the baseline condition (control) was 1.87±0.291 (mean±s.e.m.), while after the bath application of LY379268 (1 μM) it was 2.87±0.435 (n=15 Wilcoxon signed rank test: p=0.002**). Such increase was not observed in WT slices treated with artificial cerebrospinal fluid (ACSF; n=14; baseline: 1.79±0.291; ACSF treated: 2.21±0.299; Wilcoxon signed rank test: p=0.1562). In addition, there was also a reduction in burst threshold (defined as the lowest membrane holding potential from which hyperpolarization induced rebound bursting can be observed) in WT mice after bath application of LY379268 (1 μM; FIG. 1C). The threshold for rebound bursting in the baseline condition (control) was −76.98 mV±1.79 (mean±s.e.m.), while after the bath application of LY379268 (1 μM) it was −78.48 mV±1.80 (n=10 Wilcoxon signed rank test: p=0.048*). Such changes in threshold were also not observed following ACSF treatment (n=10; baseline: −76.06 mV±1.71; ACSF treated: −76.32 mV±1.82; Wilcoxon signed rank test: p=0.3750).
# Since early clinical trials used a prodrug form of another selective group II metabotropic glutamate receptor agonist, specifically […] (a methionine amide of LY-404039, also called pornagiumetad methionil or LY-2140023 monohydrate), the effect of LY-404039 on TRN neuron rebound bursting activity in WT mice was measured. […] The rebound bursting in control conditions was 2.71±0.42 (mean±s.e.m.), while after the bath application of LY404039 (1 μM) it was 4.57±0.64 (n=7 Wilcoxon signed rank test: p=0.0156).
# Whether specific allosteric activation of the mGlu3 receptor can also enhance rebound bursting activity in TRN neurons was examined. […]
# [2] = tested on: TRN neurons in RH mice; assay: Rebound burst firing in TRN neurons, slices from CACNA1I R1305H (RH) mice; type: cell-based; details: LY379268 1 μM bath application, mean±s.e.m., n=9, baseline 1.44±0.444, p=0.0039
# Description: as §1
# Mice carrying a mutation in CACNA1I (R1305H; RH mice) show a significant deficit in rebound bursting of TRN neurons. The amino acid sequence of mouse CACNA1I protein is provided in SEQ ID NO: 2. Whether the group II metabotropic glutamate receptor agonist LY379268 could rescue such deficits in rebound bursting in RH mice was tested. Similar to in WT mice, LY379268 (1 μM) was also able to increase rebound bursting in RH mice (FIG. 2A-2B). The rebound bursting in baseline/control conditions was 1.44±0.444 (mean±s.e.m.), while after the bath application of LY379268 (1 μM) it was 3.78±1.08 (n=9 Wilcoxon signed rank test: p=0.0039**). […]
# [3] = tested on: WT and CaV3.3 RH mice; assay: EEG recording of NREM sleep, delta power and sleep spindles after LY379268, analyzed by Luna; type: in vivo; details: 10 mg/kg i.p.
# Method: (§2) There is a strong correlation between rebound bursting in TRN neurons and the rate of occurrence of sleep spindle oscillations during NREM or deep sleep state in mice (Wells et al., Ghoshal et al.) Since LY379268 increased rebound burst firing of TRN neurons in WT mice and rescued rebound bursting deficits in RH mice, it was examined whether activation of mGlu3 could rescue the sleep spindle deficits observed in the RH mice. LY379268 was administered intraperitoneally (i.p.; 10 mg/kg) while simultaneously recording the brain activity using electroencephalography (EEG) in WT and CaV3.3 RH mice. EEG was recorded using surface electrodes chronically implanted near the frontal and parietal lobes of the mice (Pinnacle Systems). Mice were habituated in the EEG recording arena for 48 hrs and then injected with vehicle (0.9% saline) and recorded for another 24 hours. Then, 10 mg/kg LY379268 formulated in 0.9% saline was injected, and their EEG activity was recorded for another 24 hours, and analyzed by Luna (zzz.bwh.harvard.edu, Ghoshal et al., 2020).
# [4] = tested on: WT mice; assay: EEG recording of NREM sleep and sleep spindle density after Mavalon-63, decision tree algorithm; type: in vivo; details: 10 mg/kg
# Method: as §2
# Whether allosteric activation of mGlu3 receptor using the Mavalon-63 PAM would also lead to an increase in sleep spindle density was examined. The experimental design is shown in FIG. 6A, and mice were similarly recorded as in Example 4. […]
# [5] = both WT and RH mice, 12 hr light cycle
compound,measurement,setting,value
"N[C@@]1(C(=O)O)CO[C@H]2[C@H](C(=O)O)[C@H]21 (stereo in doubt) [LY379268, (1R,4R,5S, 6R)-4-Amino-2-oxabicyclo[3.1.0]hexane-4,6-dicarboxylic acid]",threshold for rebound bursting after bath application,"[1]; WT mice, LY379268 1 μM bath application, n=10, baseline −76.98 mV±1.79, p=0.048",−78.48 mV
same,rebound bursting (number of rebound bursts) after bath application,"[1]; WT mice, LY379268 1 μM bath application, n=15, baseline 1.87±0.291, p=0.002",2.87±0.435
same,rebound bursting (number of rebound bursts) after bath application,[2],3.78±1.08
same,NREM specific sleep spindle deficits in RH mice,"[3]; RH mice, to wildtype levels, WT-baseline vs RH-LY379268 p>0.05",rescued
same,"sleep spindle density, entire NREM period","[3]; both WT and RH mice, 12-hr light cycle, especially parietal cortex, Fc=13 Hz and 15 Hz",modest but significant increase
same,relative delta power,[3]; [5],concurrent increase
same,time spent in NREM sleep,[3]; [5],increased
same,"increase in sleep spindles, latter half (last 6 hours) of the light cycle","[3]; compared with the entire 12-hr light cycle, Fc=13 Hz and 15 Hz",more robust
"N[C@@]1(C(=O)O)CS(=O)(=O)[C@H]2[C@H](C(=O)O)[C@H]21 [LY404039, (1R,4S,5S,6S)-4-Amino-2-thiabicyclo [3.1.0]hexane-4,6-dicaiboxylic acid 2,2-dioxide]",rebound bursting (number of rebound bursts) after bath application,"[1]; WT mice, LY404039 1 μM bath application, n=7, control 2.71±0.42, p=0.0156",4.57±0.64
"CN1C(=O)c2cccn2-c2cc(-c3ccc(F)cn3)ccc2C12CC2 [Mavalon 63, 5-Methyl-9-(5-fluoropyridin-2-yl)-spiro[benzo [f]pyrrolo[1.2-a][1,4]diazepine-6,1′-cyclopropan]-4(5H)-one]",time spent in NREM,[4]; 12-hr light cycle,did not increase
same,parietal sleep spindle density during NREM,"[4]; averaged across all center frequencies 9-15 Hz, 12 hour light cycle",appreciable and significant (p<0.05; paired t-test) increase
same,rebound bursting (number of rebound bursts) after bath application,"[1]; WT TRN neurons, Mavalon 63 500 nM bath application, n=12, baseline 3.2±0.77, p=0.0020",4.9±0.91
